Reference: US5597823A, “Tricyclic substituted hexahydrobenz [e]isoindole alpha-1 adrenergic antagonists” (priority 1995, dated 1997)
Counter-ions that a name gives are not always drawn.

Legend:
Assay type in all cases: cell-based
[1] = molecular target: T1, α-1A adrenoceptor (dog prostate) (Canis lupus, UniProt A0A8I3NK63); test: Functional antagonism: phenylephrine (PE)-induced contraction of canine prostate strips; conditions: vs phenylephrine, Schild plot
T1 sequence (A0A8I3NK63 1-466): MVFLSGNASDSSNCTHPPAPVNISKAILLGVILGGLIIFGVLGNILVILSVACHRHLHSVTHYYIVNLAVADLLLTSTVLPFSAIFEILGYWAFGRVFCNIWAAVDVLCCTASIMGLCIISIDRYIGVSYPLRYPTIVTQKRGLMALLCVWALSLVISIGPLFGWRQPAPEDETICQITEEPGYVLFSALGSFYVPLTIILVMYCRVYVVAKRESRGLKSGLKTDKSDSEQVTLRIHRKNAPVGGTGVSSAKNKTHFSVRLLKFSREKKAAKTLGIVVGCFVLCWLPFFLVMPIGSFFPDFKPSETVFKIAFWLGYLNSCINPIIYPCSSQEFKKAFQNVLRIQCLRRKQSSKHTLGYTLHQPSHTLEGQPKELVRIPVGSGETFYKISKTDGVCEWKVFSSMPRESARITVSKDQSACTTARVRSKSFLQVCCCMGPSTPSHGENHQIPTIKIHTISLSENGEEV
In short: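 Canine prostate smooth-muscle strips in vitro, contracted by phenylephrine. Agonist dose–response curves repeated at rising test-agent concentrations; pA2 derived by Schild plot […].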

[2] = molecular target: T2, α-1B adrenoceptor (rat spleen) (Rattus norvegicus, UniProt P15823); test: Functional antagonism: phenylephrine (PE)-induced contraction of rat spleen; conditions: for Kb / pA2 Rat Spleen [α-1B]: vs phenylephrine, Schild plot; for Kb: read-out: pA2 Rat Spleen [α-1B] (converted)
T2 construct: PE-induced contraction of rat spleen; from tissue; host or cells: rat spleen
T2 sequence (P15823 1-515): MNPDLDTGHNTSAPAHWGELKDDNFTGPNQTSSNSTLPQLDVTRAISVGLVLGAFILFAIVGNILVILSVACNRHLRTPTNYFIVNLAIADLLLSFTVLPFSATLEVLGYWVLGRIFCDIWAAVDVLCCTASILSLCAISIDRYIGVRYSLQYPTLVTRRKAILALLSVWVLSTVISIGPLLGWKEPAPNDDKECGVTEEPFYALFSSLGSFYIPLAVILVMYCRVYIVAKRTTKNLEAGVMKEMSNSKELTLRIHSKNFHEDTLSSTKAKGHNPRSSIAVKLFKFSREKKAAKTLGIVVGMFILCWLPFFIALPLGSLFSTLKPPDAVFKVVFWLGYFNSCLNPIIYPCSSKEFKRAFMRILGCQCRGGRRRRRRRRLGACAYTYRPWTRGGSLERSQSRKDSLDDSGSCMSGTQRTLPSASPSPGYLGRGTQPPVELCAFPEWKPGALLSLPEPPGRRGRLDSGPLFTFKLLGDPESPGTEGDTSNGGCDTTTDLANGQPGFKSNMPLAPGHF
Text: (§1) Functional assays indicative of pharmacologically defined α-1 adrenoceptors were used to further characterize compounds. Inhibition of phenylephrine (PE)-induced contraction of canine prostate smooth muscle can be correlated with α-1A adrenoceptor activation. […] For each of these models, agonist dose response curves were repeated against increasing concentrations of test agent to derive a Schild plot [log ([…]) against log (molarity of test agent)] to determine the pA2.

[3] = molecular target: T3, α-1A adrenoceptor (rat vas deferens) (Rattus norvegicus, UniProt P43140); test: Functional antagonism: phenylephrine (PE)-induced contraction of rat vas deferens; conditions: vs phenylephrine, Schild plot; for Kb: read-out: pA2 Rat Vas Deferens [α-1A] (converted)
T3 construct: PE-induced contraction of rat vas deferens; from tissue; host or cells: rat vas deferens
T3 sequence (P43140 1-466): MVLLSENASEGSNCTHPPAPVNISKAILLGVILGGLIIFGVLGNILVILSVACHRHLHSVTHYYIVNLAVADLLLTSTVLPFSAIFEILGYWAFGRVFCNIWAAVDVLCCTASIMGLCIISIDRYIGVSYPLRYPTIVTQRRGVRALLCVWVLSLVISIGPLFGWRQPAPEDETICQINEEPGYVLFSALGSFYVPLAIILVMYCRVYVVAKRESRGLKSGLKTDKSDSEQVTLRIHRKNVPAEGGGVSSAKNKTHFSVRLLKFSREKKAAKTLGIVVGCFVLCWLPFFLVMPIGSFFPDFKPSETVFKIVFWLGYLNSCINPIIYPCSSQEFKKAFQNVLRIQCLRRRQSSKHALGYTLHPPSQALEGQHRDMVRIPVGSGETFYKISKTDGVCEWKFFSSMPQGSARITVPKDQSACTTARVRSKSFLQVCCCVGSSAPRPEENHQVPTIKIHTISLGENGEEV
Text: as §1

Structure (SMILES) | pA2 Dog Prostate [α-1A] ([1]; Table 2a) | Kb [2] | Kb [3] | pA2 Rat Spleen [α-1B] [2] | pA2 Rat Vas Deferens [α-1A] [3] | pA2 Dog Prostate [α-1A] ([1]; Table 2b) | more potent effect on spleen smooth muscle ([2]; PE-induced contraction, pA2 models compared)
COc1cccc2c1CC[C@H]1CN(CCn3c(=O)[nH]c4c(sc5ccccc54)c3=O)C[C@@H]21 (relative stereo) [Example 1, hydrochloride] | 8.74 | 0.0214 µM | 0.00427 µM | – | – | – | –
COc1cccc2c1[C@@H]1CN(CCn3c(=O)[nH]c4c(sc5ccccc54)c3=O)C[C@@H]1CC2 (relative stereo) [Example 5, 3-[2-(cis-9-Methoxy-2,3,3a,4,5,9b-hexahydro-[1H]-benz[e]isoindol-1-yl)ethyl]-[1]benzothieno[3,2-d]pyrimidine-2,4(1H,3H)-dione hydrochloride] | 7.79 | 0.148 µM | 0.0138 µM | – | – | – | –
COc1cccc2c1CC[C@@H]1CN(CCn3c(=O)[nH]c4c(sc5ccccc54)c3=O)C[C@@H]21 (relative stereo) [Example 10, 3-[2-(trans-6-Methoxy-2,3,3a,4,5,9b-hexahydro-[[1H]-benz[e]isoindol-1-yl)ethyl]-[1]benzothieno[3,2-d]pyrimidine-2,4(1H,3H)-dione hydrochloride] | 8.37 | 0.0302 µM | 0.00309 µM | – | – | – | –
COc1cccc2c1CC[C@H]1CN(CCn3c(=O)c4sc5ccccc5c4n(C)c3=O)C[C@@H]21 (relative stereo) [Example 11, hydrochloride] | 8.57 | 0.0513 µM | 0.00282 µM | – | – | – | –
COc1cccc2c1CC[C@H]1CN(CCn3c(=O)[nH]c4c([nH]c5ccccc54)c3=O)C[C@@H]21 (relative stereo) [Example 14, hydrochloride] | 8.23 | 0.0234 µM | 0.00269 µM | – | – | – | –
COc1cccc2c1CC[C@@H]1CN(CCn3c(=O)[nH]c4c([nH]c5ccccc54)c3=O)C[C@@H]21 (relative stereo) [Example 17, 3-[2-(trans-6-Methoxy-2,3,3a,4,5,9b-hexahydro-[[1H]-benz[e]isoindol-1-yl)ethyl]-1H-pyrimido[5,4-b]indole-2,4(3H,5H)-dione hydrochloride] | 8.29 | 0.0631 µM | 0.0107 µM | – | – | – | –
COc1cccc2c1CC[C@@H]1CN(CCn3c(=O)[nH]c4c(oc5ccccc54)c3=O)C[C@@H]21 (relative stereo) [Example 18, 3-[2-(trans-6-Methoxy-2,3,3a,4,5,9b-hexahydro-[[1H]-benz[e]isoindol-1-yl)ethyl]-benzofuro[3,2-d]pyrimidine-2,4(1H,3H)-dione hydrochloride] | 8.37 | 0.0135 µM | 0.0138 µM | – | – | – | –
COc1cccc2c1CC[C@H]1CN(CCn3c(=O)[nH]c4c(sc5ncccc54)c3=O)C[C@@H]21 (relative stereo) [Example 23, hydrochloride] | 8.97 | 0.151 µM | 0.00513 µM | – | – | – | –
COc1cccc2c1CC[C@H]1CN(CCn3c(=O)[nH]c4c(ccc5ccccc54)c3=O)C[C@@H]21 (relative stereo) [Example 25, hydrochloride] | 8.27 | 0.174 µM | 0.00219 µM | – | – | – | –
O=c1[nH]c2c(sc3cccnc32)c(=O)n1CCN1C[C@@H]2CCc3c(ccc4c3OCO4)[C@@H]2C1 (relative stereo) [Example 112, dihydrochloride] | 8.18 | – | – | 7.2 | 7.92 | – | –
COc1cccc2c1CC[C@@H]1CN(CCn3c(=O)[nH]c4c(sc5ccccc54)c3=O)C[C@H]21 [Example 8, 3-[2-((3aS,9bS)-cis-6-Methoxy-2,3,3a,4,5,9b-hexahydro-[1H]-benz[e]isoindol-1-yl)ethyl][1]benzothieno[3,2]pyrimidine-2,4(1H,3H)-dione hydrochloride] | 7.63 | 0.055 µM | 0.0174 µM | – | – | – | –
COc1cccc2c1CC[C@H]1CN(CCn3c(=O)[nH]c4c(sc5ccccc54)c3=O)C[C@@H]21 [Example 9, hydrochloride] | 8.63 | 0.0257 µM | 0.00195 µM | – | – | – | –
COc1cccc2c1[C@@H]1CN(CCn3c(=O)[nH]c4c(sc5ccccc54)c3=O)C[C@@H]1CC2 [Example 16, hydrochloride] | 8.54 | 0.0562 µM | 0.0105 µM | – | – | – | –
COc1cccc2c1CC[C@H]1CN(CCn3c(=O)[nH]c4c([nH]c5ccccc54)c3=O)C[C@@H]21 [Example 26, 3-[2-((3aR,9bR)-cis-6-Methoxy-2,3,3a,4,5,9b-hexahydro-[1 H]-benz[e]isoindol-1-yl)ethyl]-1H-pyrimido[5.4-b]indole-2,4(1H,3H)-dione hydrochloride] | 8.63 | 0.00741 µM | 0.00275 µM | – | – | – | –
COc1cccc2c1CC[C@H]1CN(CCn3c(=O)[nH]c4c(sc5ncccc54)c3=O)C[C@@H]21 [Example 31, 3,2-((3aR,9bR)-cis-6-Methoxy-2,3,3a,4,5,9b-hexahydro-[1H]-benz[e]isoindol-1-yl))ethyl]-pyrido[3',2':4,5]thieno[3,2-d]pyrimidine-2,4(1H,3H)-dione hydrochloride] | 8.78 | 0.0174 µM | 0.00224 µM | – | – | – | –
COc1cccc2c1CC[C@H]1CN(CCn3c(=O)[nH]c4c(sc5cnccc54)c3=O)C[C@@H]21 [Example 36, dihydrochloride] | 9.71 | 0.00794 µM | 0.00251 µM | – | – | – | –
COc1cccc2c1CC[C@H]1CN(CCn3c(=O)[nH]c4c(sc5nccnc54)c3=O)C[C@@H]21 [Example 39] | 9.16 | – | – | 7.76 | 8.33 | – | –
COc1cccc2c1CC[C@H]1CN(CCn3c(=O)[nH]c4c(sc5ccc(C(=O)N6CCOCC6)cc54)c3=O)C[C@@H]21 [Example 58, hydrochloride] | 9.09 | 0.0363 µM | 0.00437 µM | – | – | – | –
COc1cccc2c1CC[C@H]1CN(CCn3c(=O)[nH]c4c(sc5ccc(Cl)nc54)c3=O)C[C@@H]21 [Example 62, dihydrochloride] | 9.24 | 0.0219 µM | 0.000724 µM | – | – | – | –
COCCn1c(=O)n(CCN2C[C@@H]3CCc4c(OC)cccc4[C@@H]3C2)c(=O)c2sc3nccnc3c21 [Example 104, 3-[2-(cis-(3aR,9bR)-6-Methoxy-2,3,3a,4,5,9b-hexahydro-[1H]-benz[e]isoindol-1-yl)ethyl]-1-(2-methoxyethyl)pyrazino[2',3':4,5]thieno[3,2-d]pyrimidine-2,4(1H,3H)-dione hydrochloride] | – | – | – | – | – | 9.74 | –
COCCn1c(=O)n(CCN2C[C@@H]3CCc4c(OC)cccc4[C@@H]3C2)c(=O)c2sc3cccnc3c21 [Example 105, hydrochloride] | – | – | – | – | – | 8.58 | –
CCOc1cccc2c1CC[C@H]1CN(CCn3c(=O)[nH]c4c(sc5ncccc54)c3=O)C[C@@H]21 [Example 109, hydrochloride] | – | – | – | – | – | 8.00 | –
CCc1cccc2c1CC[C@H]1CN(CCn3c(=O)[nH]c4c(sc5cccnc54)c3=O)C[C@@H]21 [Example 113, dihydrochloride] | – | – | – | – | – | 8.22 | –
COc1cc2nc(N3CCN(C(=O)C4COc5ccccc5O4)CC3)nc(N)c2cc1OC (centres unmarked) [doxazosin, reference compound] | – | – | – | – | – | – | more potent effect on spleen smooth muscle by approximately an order of magnitude
